The nature of the data set: Crystal form stability on storage (no transformation to other forms). The conditions noted are these: 40° C./75% RH; samples packaged in inner double-layered LDPE bags and an outer aluminum foil composite film bag. In kind it is physicochemical.

On to “trisodium AHU-377 and Valsartan co-crystal hydrate Form II”, for which the “Crystalline form stability (transformation to other forms)” value is on record as “will not transform to other forms”.
